This data set can be described thus: Solubility of anhydrous docetaxel in PEG 400 or PEG 300. The format is physicochemical. The settings on record: per 1 g of PEG 300; ultrasonic dispersion for 5 minutes at 70-80° C. As to the method:
Formulations of anhydrous docetaxel and either PEG 400 or PEG 300 were prepared and mixed using ultrasonic dispersion for 5 minutes at 70-80° C. 1 g of PEG 400 dissolved 25 mg of anhydrous docetaxel. […] 1 g of PEG 300 dissolved 100 mg of anhydrous docetaxel. Accordingly, PEG 300 was able to better solubilize anhydrous docetaxel.

Results on one compound are retold here after US9308195B2, “Non-aqueous taxane formulations and methods of using the same” (Teikoku Pharma USA, Inc., priority 2012, dated 2016).

In the case of `CC(=O)O[C@@]12CO[C@@H]1C[C@H](O)[C@@]1(C)C(=O)[C@H](O)C3=C(C)[C@@H](OC(=O)[C@H](O)[C@@H](NC(=O)OC(C)(C)C)c4ccccc4)C[C@@](O)([C@@H](OC(=O)c4ccccc4)[C@H]21)C3(C)C` [anhydrous docetaxel, (2R,3S)-N-carboxy-3-phenylisoserine,Ntert-butyl ester, 13-ester with 5β-20-epoxy-1,2α,4,7β,10β,13α-hexahydroxytax-11-en-9-one 4-acetate 2-benzoate], the “amount of anhydrous docetaxel dissolved by 1 g of PEG 300” value was not below 100 mg.
